From patent US10881641B2, “Methods and use of compounds that bind to RelA of NF-kB” (Cedars-Sinai Medical Center, priority 2015, dated 2021)
“Also recorded” adds a separate entry of the source.

Assays:
[1] = system: triple-negative breast cancer cell lines; experiment: cell proliferation by calorimetric assay (MTT); type: cell-based; conditions: FIG. 1A
RelA(p65) = target: T1, RelA(p65) (Homo sapiens, UniProt Q04206); experiment: nuclear localization of RelA by immunofluorescent staining; type: cell-based; conditions: TNBC cell lines, 20 mM CRL1101 in 1% DMSO, 45 minutes, FIG. 2
T1 construct: endogenous in cells
T1 sequence (Q04206 whole entry): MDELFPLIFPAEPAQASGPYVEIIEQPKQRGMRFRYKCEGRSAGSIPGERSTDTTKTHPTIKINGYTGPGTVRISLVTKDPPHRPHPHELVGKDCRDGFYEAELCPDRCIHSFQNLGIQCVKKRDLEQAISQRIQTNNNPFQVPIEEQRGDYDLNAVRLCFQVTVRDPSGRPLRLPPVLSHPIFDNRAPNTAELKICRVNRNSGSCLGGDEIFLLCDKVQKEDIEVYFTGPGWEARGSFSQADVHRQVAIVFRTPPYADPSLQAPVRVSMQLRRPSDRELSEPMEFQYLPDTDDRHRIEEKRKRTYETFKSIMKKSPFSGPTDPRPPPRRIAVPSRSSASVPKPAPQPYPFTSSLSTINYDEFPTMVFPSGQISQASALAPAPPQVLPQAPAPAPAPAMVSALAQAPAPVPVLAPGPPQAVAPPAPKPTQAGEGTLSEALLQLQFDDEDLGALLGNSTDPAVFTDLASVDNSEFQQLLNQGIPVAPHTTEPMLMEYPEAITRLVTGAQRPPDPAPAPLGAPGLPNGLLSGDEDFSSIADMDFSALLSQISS
Protocol: Cells were grown in Dulbecco's modified Eagle medium supplemented with 10% heat-inactivated fetal calf serum and 1% (w/v) penicillin/streptomycin (all purchased from Mediatech Inc, Manassas, Va., USA). Cells were treated with or without 20 mM of CRL1101 in 1% DMSO. Forty five minutes after treatment, cells were fixed with 4% formaldehyde for 10 min and sequentially treated with 0.1% Triton X 100 for 10 min. Cells were blocked in 1% BSA in PBS for 10 min. cells were incubated with anti-Re/A(p65) antibody (1:150, Abeam, Cambridge, UK) in PBS with 1% BSA overnight at 4° C. and a secondary antibody (1:1000 anti-rabbit Alexa 488, Invitrogen, Carlsbad, Calif., USA) for 1 hr in the dark. Analyses were performed using a microscope (Nikon ECLIPSE Ti-U, Nikon, Tokyo, JAPAN).

MDA-MB-231 cells = experiment: xenograft breast cancer model, tumor growth; type: in vivo, athymic mice; conditions: 25 mg/kg/day IP for 4 weeks, compared to vehicle, N=6, FIG. 3
Protocol: Mice were administrated 25 mg/kg/day of CRL1101 or vehicle IP, as indicated by arrows. Results are given as mean tumor volume +− s.e. […] N=6. Therapeutic efficacy of CRL1101 was tested in xenograft breast cancer model. Briefly, triple-negative breast cancer cells, MDA-MB-231 were used to grow tumor in athymic mice. Mice were treated with 25 mg/kg/day, IP for 4 weeks. The control group was treated with vehicle.

breast cancer cells = experiment: anchorage independent growth assay (colony formation, clonogenic survival); type: cell-based; conditions: 15 uM CRL1101 added after 24 hours, 14 days, soft agarose, FIG. 1B
Protocol: The effects of CRL1101 on clonogenic survival were analyzed. Base layers consisting of growth medium containing 0.53% low-melting point agarose (Invitrogen) were poured onto 6-well plates and allowed to solidify. Cells were seeded at concentration of 10000/well in triplicate in top layers consisting of growth medium containing 0.32% agarose. After 24 hours, 15, uM of CRL1101 was added. Cells were incubated for 14 days to form visible colonies. The colonies were fixed and stained by 0.05% Crystal violet in 50% methanol.

Cl.O=[N+]([O-])c1cc(S(=O)(=O)CCCN2CCOCC2)ccc1F [CRL1101]
IC50 ([1]; all the three TNBC cell lines, MTT, read-out: IC50, inhibition of TNBC cell line proliferation): 20 µM
cell proliferation ([1]; breast cancer cells): significantly inhibited
nuclear localization of RelA (RelA(p65)): significantly inhibited
tumor growth (mean tumor volume) (MDA-MB-231 cells): significant reduction in tumor growth; also recorded: significant (p<0.001) compared to vehicle
colony formation (breast cancer cells): significantly inhibited
